Test results as given in ChEMBL document CHEMBL6083220, “Chemically induced degradation of PRC2 complex by EZH2-Targeted PROTACs via a Ubiquitin-Proteasome pathway” (Bioorg Med Chem Lett, 2024).
Active and inactive are the calls of the source. The rule behind the calls is not given here.

How the values were obtained:
[1] = Antiproliferative activity against human MINO cells by MTT assay; format: functional, cell-based
OCI-Ly7 = experiment: Antiproliferative activity against human OCILY7 cells by MTT assay; format: functional, cell-based
MINO [2] = experiment: Induction of mitochondrial apoptosis pathway in human MINO cells assessed as downregulation of procaspase-3 expression at 5 uM incubated for 24 hrs by Western blotting assay; format: functional, cell-based
[3] = Induction of cell cycle arrest in human MINO cells assessed as S phase cells at 5 uM incubated for 24 hrs by propidium iodide staining based flow cytometry assay (reference value: 25.19%); format: functional
[4] = Induction of apoptosis in human MINO cells assessed as late apoptotic cells at 5 uM incubated for 24 hrs by Annexin V-FITC/PI staining based flow cytometry assay (reference value: 8.29%); format: functional
[5] = Induction of apoptosis in human MINO cells assessed as necrotic cells at 5 uM incubated for 24 hrs by Annexin V-FITC/PI staining based flow cytometry assay (reference value: 0.74%); format: functional
MINO [6] = experiment: Induction of mitochondrial apoptosis pathway in human MINO cells assessed as downregulation of bcl-2 expression at 5 uM incubated for 24 hrs by Western blotting assay; format: functional, cell-based
MINO [7] = experiment: Induction of mitochondrial apoptosis pathway in human MINO cells assessed as upregulation of bax protein expression at 5 uM incubated for 24 hrs by Western blotting assay; format: functional, cell-based
MINO [8] = experiment: Downregulation of H3k27me3 protein expression in human MINO cells at 5 uM incubated for 24 hrs by Western blotting assay; format: functional, cell-based
[9] = Induction of cell cycle arrest in human MINO cells assessed as G2/M phase cells at 5 uM incubated for 24 hrs by propidium iodide staining based flow cytometry assay (reference value: 7.26%); format: functional
MINO [10] = experiment: Downregulation of RbAp48 protein expression in human MINO cells at 5 uM incubated for 24 hrs by Western blotting assay; format: functional, cell-based
[11] = Induction of cell cycle arrest in human MINO cells assessed as G0/G1 phase cells at 5 uM incubated for 24 hrs by propidium iodide staining based flow cytometry assay (reference value: 67.56%); format: functional
MINO [12] = experiment: Induction of mitochondrial apoptosis pathway in human MINO cells assessed as upregulation of cleaved PARP expression at 5 uM incubated for 24 hrs by Western blotting assay; format: functional, cell-based
MINO [13] = experiment: Induction of mitochondrial apoptosis pathway in human MINO cells assessed as upregulation of cytochrome C expression at 5 uM incubated for 24 hrs by Western blotting assay; format: functional, cell-based
[14] = Induction of apoptosis in human MINO cells assessed as early apoptotic cells at 5 uM incubated for 24 hrs by Annexin V-FITC/PI staining based flow cytometry assay (reference value: 1.04%); format: functional
MINO [15] = experiment: Downregulation of SUZ12 protein expression in human MINO cells at 5 uM incubated for 24 hrs by Western blotting assay; format: functional, cell-based
MINO [16] = experiment: Induction of mitochondrial apoptosis pathway in human MINO cells assessed as downregulation of procaspase-9 expression at 5 uM incubated for 24 hrs by Western blotting assay; format: functional, cell-based
[17] = Induction of apoptosis in human MINO cells assessed as viable cells at 5 uM incubated for 24 hrs by Annexin V-FITC/PI staining based flow cytometry assay (reference value: 89.93%); format: functional; conditions: read-out: Activity
MINO [18] = experiment: Downregulation of EZH2 protein expression in human MINO cells at 5 uM incubated for 24 hrs by Western blotting assay; format: functional, cell-based
MINO [19] = experiment: Downregulation of EED protein expression in human MINO cells at 5 uM incubated for 24 hrs by Western blotting assay; format: functional, cell-based

Structure (SMILES)	IC50 [1] [nM]	IC50 (OCI-Ly7) [nM]	other results
CCN(c1cc(-c2ccc(CN3CCN(C(=O)/C=C/C4CCC(CNc5cccc6c5C(=O)N(C5CCC(=O)NC5=O)C6=O)C4)CC3)cc2)cc(C(=O)NCc2c(C)cc(C)[nH]c2=O)c1C)C1CCOCC1 (configuration not stated)	57	7	–
CCN(c1cc(-c2ccc(CN3CCN(C(=O)CN4CCC(Nc5cccc6c5C(=O)N(C5CCC(=O)NC5=O)C6=O)CC4)CC3)cc2)cc(C(=O)NCc2c(C)cc(C)[nH]c2=O)c1C)C1CCOCC1 (configuration not stated)	530	22	–
CCN(c1cc(-c2ccc(CN3CCN(C(=O)CN4CCCC(CNc5cccc6c5C(=O)N(C5CCC(=O)NC5=O)C6=O)C4)CC3)cc2)cc(C(=O)NCc2c(C)cc(C)[nH]c2=O)c1C)C1CCOCC1 (configuration not stated)	450	220	–
CCN(c1cc(-c2ccc(CN3CCOCC3)cc2)cc(C(=O)NCc2c(C)cc(C)[nH]c2=O)c1C)C1CCOCC1 [TAZEMETOSTAT]	1070	1190	Activity (MINO [2]): Active; Activity Weaker Than Zj-20; Activity [3]: 18.34%; Activity [4]: 32.16%; Activity [5]: 10.27%; Activity (MINO [6]): Active; Activity Weaker Than Zj-20; Activity (MINO [7]): Active; Activity Weaker Than Zj-20; Activity (MINO [8]): Active; Limited Inhibition Observed; Activity [9]: 7.74%; Activity (MINO [10]): inactive; Activity [11]: 73.92%; Activity (MINO [12]): Active; Activity Weaker Than Zj-20; Activity (MINO [13]): Active; Activity Weaker Than Zj-20; Activity [14]: 0.38%; Activity (MINO [15]): inactive; Activity (MINO [16]): Active; Activity Weaker Than Zj-20; viability at 5 µM [17]: 57.2%; Activity (MINO [18]): inactive; Activity (MINO [19]): inactive
CCN(c1cc(-c2ccc(CN3CCN(CC=C4CCC(CNc5cccc6c5C(=O)N(C5CCC(=O)NC5=O)C6=O)CC4)CC3)cc2)cc(C(=O)NCc2c(C)cc(C)[nH]c2=O)c1C)C1CCOCC1 (configuration not stated)	250	4	–
CCN(c1cc(-c2ccc(CN3CCN(CCCN4CC(CNc5cccc6c5C(=O)N(C5CCC(=O)NC5=O)C6=O)C4)CC3)cc2)cc(C(=O)NCc2c(C)cc(C)[nH]c2=O)c1C)C1CCOCC1 (configuration not stated)	69	22	–
CCN(c1cc(-c2ccc(CN3CCN(C(=O)CN4CC(CNc5cccc6c5C(=O)N(C5CCC(=O)NC5=O)C6=O)C4)CC3)cc2)cc(C(=O)NCc2c(C)cc(C)[nH]c2=O)c1C)C1CCOCC1 (configuration not stated)	950	1970	–
CCN(c1cc(-c2ccc(CN3CCN(C(=O)C=C4CCC(CNc5cccc6c5C(=O)N(C5CCC(=O)NC5=O)C6=O)CC4)CC3)cc2)cc(C(=O)NCc2c(C)cc(C)[nH]c2=O)c1C)C1CCOCC1 (configuration not stated)	690	190	–
CCN(c1cc(-c2ccc(CN3CCN(C(=O)CCC4CCC(CNc5cccc6c5C(=O)N(C5CCC(=O)NC5=O)C6=O)CC4)CC3)cc2)cc(C(=O)NCc2c(C)cc(C)[nH]c2=O)c1C)C1CCOCC1 (configuration not stated)	39	37	–
CCN(c1cc(-c2ccc(CN3CCN(C(=O)C4CCN(C5CN(c6cccc7c6C(=O)N(C6CCC(=O)NC6=O)C7=O)C5)CC4)CC3)cc2)cc(C(=O)NCc2c(C)cc(C)[nH]c2=O)c1C)C1CCOCC1 (configuration not stated)	2470	10400	–
CCN(c1cc(-c2ccc(CN3CCN(C(=O)CN4CCC(Nc5cccc6c5C(=O)N(C5CCC(=O)NC5=O)C6=O)C4)CC3)cc2)cc(C(=O)NCc2c(C)cc(C)[nH]c2=O)c1C)C1CCOCC1 (configuration not stated)	660	150	–
CCN(c1cc(-c2ccc(CN3CCN(C(=O)/C=C/C4CCC(CNc5cccc6c5C(=O)N(C5CCC(=O)NC5=O)C6=O)CC4)CC3)cc2)cc(C(=O)NCc2c(C)cc(C)[nH]c2=O)c1C)C1CCOCC1 (configuration not stated)	24	40	–
CCN(c1cc(-c2ccc(CN3CCN(C(=O)CN4CCN(c5cccc6c5C(=O)N(C5CCC(=O)NC5=O)C6=O)CC4)CC3)cc2)cc(C(=O)NCc2c(C)cc(C)[nH]c2=O)c1C)C1CCOCC1 (configuration not stated)	110	2350	–
CCN(c1cc(-c2ccc(CN3CCN(C(=O)Cc4ccc(CNc5cccc6c5C(=O)N(C5CCC(=O)NC5=O)C6=O)cc4)CC3)cc2)cc(C(=O)NCc2c(C)cc(C)[nH]c2=O)c1C)C1CCOCC1 (configuration not stated)	1030	870	–
CCN(c1cc(-c2ccc(CN3CCN(C(=O)C4CCN(C5CCN(c6cccc7c6C(=O)N(C6CCC(=O)NC6=O)C7=O)CC5)CC4)CC3)cc2)cc(C(=O)NCc2c(C)cc(C)[nH]c2=O)c1C)C1CCOCC1 (configuration not stated)	980	4050	–
CCN(c1cc(-c2ccc(CN3CCN(C(=O)C4CCC(CNc5cccc6c5C(=O)N(C5CCC(=O)NC5=O)C6=O)CC4)CC3)cc2)cc(C(=O)NCc2c(C)cc(C)[nH]c2=O)c1C)C1CCOCC1 (configuration not stated)	34	18	–
CCN(c1cc(-c2ccc(CN3CCN(C(=O)CN4CCC(CNc5cccc6c5C(=O)N(C5CCC(=O)NC5=O)C6=O)C4)CC3)cc2)cc(C(=O)NCc2c(C)cc(C)[nH]c2=O)c1C)C1CCOCC1 (configuration not stated)	3210	2130	–
CCN(c1cc(-c2ccc(CN3CCN(C(=O)CCN4CC(CNc5cccc6c5C(=O)N(C5CCC(=O)NC5=O)C6=O)C4)CC3)cc2)cc(C(=O)NCc2c(C)cc(C)[nH]c2=O)c1C)C1CCOCC1 (configuration not stated)	510	170	–
CCN(c1cc(-c2ccc(CN3CCN(C(=O)CCC4CCC(CNc5cccc6c5C(=O)N(C5CCC(=O)NC5=O)C6=O)C4)CC3)cc2)cc(C(=O)NCc2c(C)cc(C)[nH]c2=O)c1C)C1CCOCC1 (configuration not stated)	30	20	–
CCN(c1cc(-c2ccc(CN3CCN(C(=O)CCC4CC(CNc5cccc6c5C(=O)N(C5CCC(=O)NC5=O)C6=O)C4)CC3)cc2)cc(C(=O)NCc2c(C)cc(C)[nH]c2=O)c1C)C1CCOCC1 (configuration not stated)	48	10	–
CCN(c1cc(-c2ccc(CN3CCN(C(=O)/C=C/C4CC(CNc5cccc6c5C(=O)N(C5CCC(=O)NC5=O)C6=O)C4)CC3)cc2)cc(C(=O)NCc2c(C)cc(C)[nH]c2=O)c1C)C1CCOCC1 (configuration not stated)	190	6	–
CCN(c1cc(-c2ccc(CN3CCN(CCC4CCC(CNc5cccc6c5C(=O)N(C5CCC(=O)NC5=O)C6=O)CC4)CC3)cc2)cc(C(=O)NCc2c(C)cc(C)[nH]c2=O)c1C)C1CCOCC1 (configuration not stated)	40	13	–
